Test results reported in paper PMC12114633, “α-Glucosidase Inhibition Mechanism and Anti-Hyperglycemic Effects of Flavonoids from Astragali Radix and Their Mixture Effects” (Pharmaceuticals, 2025).
Read-outs that look alike come from different tables or passages of the source.

Key:
[1] = tested on: blood glucose; conditions: 50 mg/kg, cited from earlier work
[2] = target: T1, Saccharomyces cerevisiae α-glucosidase (Saccharomyces cerevisiae, UniProt P53341); assay: biochemical; conditions: IC50, α-glucosidase 0.2 U/mL, 5 mM pNPG, PBS pH 6.8, 37 °C
T1 construct: purchased Shanghai Yuanye Biotechnology Co., Shanghai, China Lot No. M23HS178879 (catalogue number not given)
Procedure: (§1) The α-glucosidase inhibitory effects of flavonoids were evaluated as in a previous report with slight modifications (including changes in the concentrations of the enzyme, substrate, and Na2CO3). Briefly, 50 μL of phosphate-buffered saline (PBS, 0.1 M, pH 6.8), the test compound, and α-glucosidase (0.2 U/mL) were preincubated in a 96-well plate at 37 °C for 10 min. The reaction was then initiated by adding 50 μL of 5 mM pNPG as the substrate. Subsequently, the 96-well plate was incubated for an additional 30 min at 37 °C, then 50 μL of 0.2 M Na2CO3 was added to terminate the reaction. Absorbance was measured at under 405 nm.

[3] = target: T2, α-glucosidase (Saccharomyces cerevisiae, UniProt P53341); assay: Inhibitory kinetic analysis (Lineweaver–Burk plot); type: biochemical; conditions: Lineweaver–Burk plots, pNPG 0.31–20 mM
T2 construct: purchased Shanghai Yuanye Biotechnology Co., Shanghai, China Lot No. M23HS178879 (catalogue number not given)
Procedure: The type of inhibition was determined by using the kinetics curve and the Lineweaver–Burk plot. […] These compounds were incubated with α-glucosidase at 37 °C for 30 min. After incubation, various concentrations of pNPG (0.31–20 mM) were added, and absorbance was measured at 405 nm. The Lineweaver–Burk plot was obtained by plotting 1/[S] on the x-axis and 1/v on the y-axis, where [S] represents substrate concentration and v represents the reaction velocity.

[4] = target: T2, α-glucosidase; assay: CD spectroscopy, secondary structure of α-glucosidase (BeStSel); conditions: for β-turn: free enzyme 11.7; for β-sheet: free enzyme 28.8; for random coil: free enzyme 45.2; for α-helix: free enzyme 14.4
Procedure: CD spectra in the far-UV region (190–250 nm) were scanned by using a CD spectrometer (JASCO-1.5 Tokyo, Japan). […] The slit width was set to 1 nm, and the baseline was calibrated with PBS (phosphate buffered saline). CD spectra were averaged over three scans under a constant nitrogen flow, with the buffer signal subtracted. The results were analyzed using the BeStSel database (https://bestsel.elte.hu/index.php, accessed on 16 May 2025).

[5] = target: T2, α-glucosidase; assay: biochemical; type: binding
Procedure: SPR analysis was performed using the Biacore 8K system (GE Healthcare, Uppsala, Sweden). α-Glucosidase (0.05 mg/mL) was fixed on the CM5 sensor chip by an amine coupling kit. Subsequently, various concentrations of the 16 flavonoids dissolved in 5% DMSO were continuously injected onto the surface of α-glucosidase coated surface. After each sample injection, the sensor chip surface was washed and regenerated with running buffer (PBS) at a flow rate of 30 µL/min. According to the 1:1 Langmuir model, the equilibrium dissociation constant (KD) was calculated by the Biacore evaluation software. For sensorgrams without significant kinetic features, the KD values were calculated using the steady-state analysis.

[6] = target: T2, α-glucosidase; assay: Mixture effects of flavonoid combinations on α-glucosidase; type: biochemical; conditions: calculated from the dose–response curve
Procedure: as §1
The inhibitory activity of the composition was evaluated using the same method described in Section 3.2. […] The combination index (CI, Formula (3)) was subsequently used to assess the interactions between the compounds [60].(2) Y=Bottom+Top−Bottom/1+10^^((LogIC50−X)×HillSlope)
In Formula (3), (D)j represents the concentration of component j in the mixture needed to achieve an effect of x, while (Dx)j denotes the concentration of component j required to produce the same effect when acting alone. Here, x refers to the inhibition rate produced by the composition, and n indicates the number of individual compounds in the composition.

[7] = tested on: normal C57BL/6J mice; assay: Oral sucrose test, postprandial blood glucose; type: in vivo; conditions: for Blood glucose levels: 30 min after sucrose 4 g/kg, n = 8, in mmol/L (unit assumed); for Rate of blood glucose reduction: vs model group, 30 min after sucrose
Source text: Male C57BL/6J mice of SPF grade, aged 6–8 weeks and weighing 18–22 g, were obtained from the Experimental Animal Science Department of Peking University. The mice were housed in a controlled environment with a 12:12 light/dark cycle and a constant temperature. They were provided with standard pellet feed and given free access to drinking water. To ensure acclimatization, the mice were allowed to adjust to the diet and housing conditions for one week prior to the experiment. All animal experiments were performed in compliance with the relevant laws and institutional guidelines for the care and use of laboratory animals in China. The experiments were approved by the Laboratory Animal Management and Ethics Committee of Peking University (LA2021443). Additionally, the certification number for the laboratory animal personnel is 1120111300011.
The 16 flavonoids were subsequently evaluated for their potential antihyperglycemic effects by using the oral sucrose test, which is commonly used to evaluate intestinal α-glucosidase inhibition in vivo [62]. Normal C57BL/6J mice were randomly divided into model groups and the 16 flavonoid compound groups (n = 8 per group), respectively. The flavonoids at different concentrations were suspended in 0.5% sodium carboxymethyl cellulose (CMC-Na). […] Fifteen minutes after drug administration, the mice were given a sucrose solution (4 g/kg). Blood samples were collected from the tail vein at 30 min after sucrose loading, and blood glucose levels were measured using an Accu-Chek Performa glucometer (Roche Diagnostics, SN: 79508621393, Shanghai, China). The rate of blood glucose reduction was calculated using the following Formula (4):(4) The rate of blood glucose reduction%=the model blood glucose-the sample blood glucose/the model blood glucose×100%

[8] = target: α-glucosidase; conditions: literature values, reference given; read-out: IC50 in References; cited from earlier work
[9] = molar ratio 10:1, α-glucosidase 4 μM
[10] = molar ratio 40:1, α-glucosidase 4 μM

T2 sequence (P53341 whole entry): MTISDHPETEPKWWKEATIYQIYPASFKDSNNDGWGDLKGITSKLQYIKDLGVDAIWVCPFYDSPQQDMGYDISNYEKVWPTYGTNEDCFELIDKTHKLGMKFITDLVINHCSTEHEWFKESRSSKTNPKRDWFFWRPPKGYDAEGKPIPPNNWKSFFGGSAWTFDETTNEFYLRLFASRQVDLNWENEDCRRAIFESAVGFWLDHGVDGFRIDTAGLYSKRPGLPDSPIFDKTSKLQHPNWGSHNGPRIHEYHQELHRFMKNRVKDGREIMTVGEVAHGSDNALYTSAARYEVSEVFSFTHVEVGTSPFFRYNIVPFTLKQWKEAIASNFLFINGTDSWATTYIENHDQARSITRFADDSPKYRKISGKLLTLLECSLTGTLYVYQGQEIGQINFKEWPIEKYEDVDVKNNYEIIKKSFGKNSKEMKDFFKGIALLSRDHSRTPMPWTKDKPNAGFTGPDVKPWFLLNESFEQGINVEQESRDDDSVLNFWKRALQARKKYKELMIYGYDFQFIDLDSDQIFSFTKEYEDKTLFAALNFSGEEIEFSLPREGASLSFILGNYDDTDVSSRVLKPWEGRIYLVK
T1 sequence (P53341 whole entry): as above

C[C@@H]1O[C@@H](OC[C@H]2O[C@@H](Oc3cc4c(O)cc(O)cc4[o+]c3-c3ccc(O)cc3)[C@H](O)[C@@H](O)[C@@H]2O)[C@H](O)[C@H](O)[C@H]1O [pelargonidin-3-O-rutinoside]
reduction of blood glucose ([1]; ref 52 (Xu et al.)): 18.5%

O=c1c(O)c(-c2ccc(O)c(O)c2)oc2cc(O[C@@H]3O[C@H](CO)[C@@H](O)[C@H](O)[C@H]3O)c(O)c(O)c12 [quercetagetin-7-O-glucoside]
reduction of blood glucose ([1]; ref 51 (Tian et al.)): 16.7%

COc1ccc(-c2coc3cc(O[C@@H]4O[C@H](CO)[C@@H](O)[C@H](O)[C@H]4O)ccc3c2=O)cc1O [C16, calycosin-7-O-glucoside]
IC50 [2]: 563 ± 43.6 µM | type of inhibition on α-glucosidase [3]: mixed-type inhibitors | β-turn [4, 9]: 11.7% | β-sheet [4, 9]: 29.5% | random coil [4, 9]: 45.6% | β-turn [4, 10]: 11.5% | α-helix [4, 10]: 12.1% | β-sheet [4, 10]: 27.7% | random coil [4, 10]: 48.6% | α-helix ([4]; molar ratio compound:α-glucosidase 10:1, α-glucosidase 4 μM): 13.3% | Kd [5]: 364 µM | IC05 [6]: 150.00 µM | Blood glucose levels ([7]; 10 mg/kg oral): 15.01 ± 1.15 | Rate of blood glucose reduction ([7]; 10 mg/kg oral): 2.75% | Blood glucose levels ([7]; 25 mg/kg oral): 13.71 ± 0.77 | Rate of blood glucose reduction ([7]; 25 mg/kg oral): 11.17% | Blood glucose levels ([7]; 50 mg/kg oral): 12.78 ± 0.74 | Rate of blood glucose reduction ([7]; 50 mg/kg oral): 17.25% | IC50 [8]: 174 µM
